Values of other authors as cited in patent US4981695A, “Composition comprising L-dopa” (priority 1986, dated 1991).

Experiments:
Parkinsons disease = conditions: particularly tremor; background
[1] = background

SMILES	inhibition of symptoms of the Parkinsons disease (Parkinsons disease)	decomposition by carboxylic elimination [1]	resorption (absorption window) ([1]; gastro-intestinal tract)	L-dopa dose on adding a decarboxylase inhibitor [1]
N[C@@H](Cc1ccc(O)c(O)c1)C(=O)O [L-dopa, L-3,4-dihydroxyphenylalanine]	active at the inhibition of symptoms of the Parkinsons disease	rapidly decomposed by carboxylic elimination	resorbed over a restricted part of the gastro-intestinal tract	–
NC(CO)C(=O)NNCc1ccc(O)c(O)c1O (centres unmarked) [benserazide]	–	–	–	considerably reduced
C[C@@](Cc1ccc(O)c(O)c1)(NN)C(=O)O [carbidopa]	–	–	–	considerably reduced
